ChEMBL document CHEMBL5233262, “Anti-inflammatory activity of naturally occuring diarylheptanoids - A review” (Bioorg Med Chem, 2021)
In brackets after ≈: the same amount, converted by molar mass. Each block holds one compound with its values, some of them ahead of it.

Tests used:
Mus musculus [1] = assay: Protective activity in Pde6brd10 mouse model of Retinitis pigmentosa assessed as decrease in TNFalpha production in retina at 5 mg/kg,ip for 14 days by ELISA; assay type: functional; parameters: scale not given: the % may be the effect or the level left; conditions: time 14 day
Mus musculus [2] = assay: Protective activity in Pde6brd10 mouse model of Retinitis pigmentosa assessed as decrease in NF-kappaB expression level in retina at 5 mg/kg,ip for 14 days by Western blot analysis; assay type: functional; parameters: scale not given: the % may be the effect or the level left; conditions: time 14 day
Mus musculus [3] = assay: Protective activity in Pde6brd10 mouse model of Retinitis pigmentosa assessed as decrease in IL-12 production in retina at 5 mg/kg,ip for 14 days by ELISA; assay type: functional; parameters: scale not given: the % may be the effect or the level left; conditions: time 14 day
Mus musculus [4] = assay: Protective activity in Pde6brd10 mouse model of Retinitis pigmentosa assessed as decrease in NO production in retina at 5 mg/kg,ip for 14 days by Griess assay; assay type: functional; parameters: scale not given: the % may be the effect or the level left; conditions: time 14 day
Mus musculus [5] = assay: Protective activity in Pde6brd10 mouse model of Retinitis pigmentosa assessed as decrease in IL-12 gene expression level in retina at 5 mg/kg,ip for 14 days by qRT-PCR analysis; assay type: functional; parameters: scale not given: the % may be the effect or the level left; conditions: time 14 day
Mus musculus [6] = assay: Protective activity in Pde6brd10 mouse model of Retinitis pigmentosa assessed as decrease in IL-1beta production in retina at 5 mg/kg,ip for 14 days by ELISA; assay type: functional; parameters: scale not given: the % may be the effect or the level left; conditions: time 14 day
Mus musculus [7] = assay: Protective activity in Pde6brd10 mouse model of Retinitis pigmentosa assessed as decrease in IL-6 gene expression level in retina at 5 mg/kg,ip for 14 days by qRT-PCR analysis; assay type: functional; parameters: scale not given: the % may be the effect or the level left; conditions: time 14 day
Mus musculus [8] = assay: Protective activity in Pde6brd10 mouse model of Retinitis pigmentosa assessed as decrease in IL-1beta gene expression level in retina at 5 mg/kg,ip for 14 days by qRT-PCR analysis; assay type: functional; parameters: scale not given: the % may be the effect or the level left; conditions: time 14 day
Mus musculus [9] = assay: Protective activity in Pde6brd10 mouse model of Retinitis pigmentosa assessed as decrease in TNF-alpha gene expression level in retina at 5 mg/kg,ip for 14 days by qRT-PCR analysis; assay type: functional; parameters: scale not given: the % may be the effect or the level left; conditions: time 14 day
Mus musculus [10] = assay: Protective activity in Pde6brd10 mouse model of Retinitis pigmentosa assessed as decrease in IL-6 production in retina at 5 mg/kg,ip for 14 days by ELISA; assay type: functional; parameters: scale not given: the % may be the effect or the level left; conditions: time 14 day
RAW264.7 [11] = assay: Antiinflammatory activity in mouse RAW264.7 cells assessed as inhibition of LPS-induced TNFalpha expression at 5 ug/ml; assay type: functional
RAW264.7 [12] = assay: Antiinflammatory activity in mouse RAW264.7 cells assessed as inhibition of LPS-induced iNOS expression at 5 ug/ml; assay type: functional
Mus musculus [13] = assay: Antiinflammatory activity in TPA-induced ear edema ICR mouse model assessed as inhibition of ear inflammation at 1 ug, TOP for 30 mins followed by TPA addition and measured after 6 hrs; assay type: functional; conditions: dose 1 µg, time 390 min, 6.5 h
RAW264.7 [14] = assay: Antiinflammatory activity in mouse RAW264.7 cells assessed as inhibition of LPS-induced NO production; assay type: functional, cell-based
RAW264.7 [15] = assay: Antiinflammatory activity in mouse RAW264.7 cells assessed as inhibition of LPS-induced COX-2 expression at 5 ug/ml; assay type: functional
RAW264.7 [16] = assay: Antiinflammatory activity in mouse RAW264.7 cells assessed as inhibition of LPS-induced IL-1beta expression at 5 ug/ml; assay type: functional
RAW264.7 [17] = assay: Antiinflammatory activity in mouse RAW264.7 cells assessed as inhibition of LPS-induced NF-kappaB expression at 5 ug/ml; assay type: functional
RAW264.7 [18] = assay: Antiinflammatory activity in mouse RAW264.7 cells assessed as inhibition of LPS-induced NO production at 25 uM incubated for 24 hrs by Griess reagent based assay; assay type: functional
HepG2 [19] = assay: Antiinflammatory activity in human HepG2 cells assessed as inhibition of LPS-induced IL-6 mRNA expression at 10 ug/ml preincubated for 1 hrs followed by LPS stimulation and measured after 24 hrs by qPCR analysis; assay type: functional; conditions: time 25 hrs
[20] = Antiinflammatory activity in human PBMC cells assessed as inhibition of LPS-induced IL-1beta production at 25 uM incubated for 18 hrs by ELISA; assay type: functional
RAW264.7 [21] = assay: Antiinflammatory activity in mouse RAW264.7 cells assessed as inhibition of LPS-induced iNOS mRNA expression at 25 uM incubated for 12 hrs by PCR analysis; assay type: functional
Zingiber officinale = assay: Inhibition of prostaglandin biosynthesis in ginger; assay type: functional, organism-based
HepG2 [22] = assay: Antiinflammatory activity in human HepG2 cells assessed as inhibition of LPS-induced TNFalpha mRNA expression at 10 ug/ml preincubated for 1 hrs followed by LPS stimulation and measured after 24 hrs by qPCR analysis; assay type: functional; conditions: time 25 hrs
HepG2 [23] = assay: Antiinflammatory activity in human HepG2 cells assessed as inhibition of LPS-induced IL-1beta mRNA expression at 10 ug/ml preincubated for 1 hrs followed by LPS stimulation and measured after 24 hrs by qPCR analysis; assay type: functional; conditions: time 25 hrs
RAW264.7 [24] = assay: Cytotoxicity against mouse RAW264.7 cells assessed as reduction in cell viability at 0.07 to 0.1 mg/ml incubated for 24 hrs by MTT assay; assay type: toxicity, cell-based; conditions: raw264.7, 24 h, dose 0.07-0.1 mg/ml
RAW264.7 [25] = assay: Antiinflammatory activity in mouse RAW264.7 cells assessed as inhibition of LPS-induced COX-2 mRNA expression at 25 uM incubated for 12 hrs by PCR analysis; assay type: functional
[26] = Antiinflammatory activity in human PBMC cells assessed as inhibition of LPS-induced TNFalpha production at 25 uM incubated for 18 hrs by ELISA; assay type: functional
RAW264.7 [27] = assay: Antiinflammatory activity in mouse RAW264.7 cells assessed as inhibition of KLA-induced TNFalpha expression at 0.02 mg/ml and measured after 24 hrs by ELISA; assay type: functional
RAW264.7 [28] = assay: Antiinflammatory activity in mouse RAW264.7 cells assessed as inhibition of LPS-induced NO production incubated for 20 hrs by Griess reagent based microplate reader analysis; assay type: functional, cell-based; conditions: RAW264.7, 20 h
RAW264.7 [29] = assay: Antiinflammatory activity in mouse RAW264.7 cells assessed as inhibition of LPS-induced IL-6 production at 3 to 100 uM preincubated for 2 hrs followed by LPS stimulation and measured after 24 hrs by ELISA; assay type: functional; conditions: dose 3-100 µM, time 26 hrs
RAW264.7 [30] = assay: Antiinflammatory activity in mouse RAW264.7 cells assessed as inhibition of LPS-induced NO production at 3 to 100 uM preincubated for 2 hrs followed by LPS stimulation and measured after 24 hrs by Griess method; assay type: functional; conditions: dose 3-100 µM, time 26 hrs
RAW264.7 [31] = assay: Antiinflammatory activity in mouse RAW264.7 cells assessed as inhibition of LPS-induced TNFalpha production at 3 to 100 uM preincubated for 2 hrs followed by LPS stimulation and measured after 24 hrs by ELISA; assay type: functional; conditions: dose 3-100 µM, time 26 hrs
HUVEC [32] = assay: Antiinflammatory activity in human HUVEC cells assessed as LPS induced VCAM-1 expression at 5 to 20 uM preincubated for 1 hrs followed by LPS stimulation and measured after 6 hrs by fluorescence analysis; assay type: functional; conditions: dose 5-20 µM, time 7 hrs
HUVEC [33] = assay: Antiinflammatory activity in human HUVEC cells assessed as TNFalpha induced VCAM-1 expression at 5 to 20 uM preincubated for 1 hrs followed by TNFalpha stimulation and measured after 6 hrs by fluorescence analysis; assay type: functional; conditions: dose 5-20 µM, time 7 hrs
HUVEC [34] = assay: Antiinflammatory activity in human HUVEC cells assessed as TNFalpha induced NF-kappaB transactivation at 5 to 20 uM preincubated for 1 hrs followed by TNFalpha stimulation and measured after 6 hrs by fluorescence analysis; assay type: functional; conditions: dose 5-20 µM, time 7 hrs
HUVEC [35] = assay: Antiinflammatory activity in human HUVEC cells assessed as LPS induced NF-kappaB transactivation at 5 to 20 uM preincubated for 1 hrs followed by LPS stimulation and measured after 6 hrs by fluorescence analysis; assay type: functional; conditions: dose 5-20 µM, time 7 hrs

SMILES: COc1c2cc(c(OC)c1O)-c1cc(ccc1O)CC[C@@H](O)CCCC2
- Activity (Mus musculus [1]): 16%
- Activity (Mus musculus [2]): 50%
- Activity (Mus musculus [3]): 12%
- Activity (Mus musculus [4]): 21%
- Activity (Mus musculus [5]): 38%
- Activity (Mus musculus [6]): 22%
- Activity (Mus musculus [7]): 31%
- Activity (Mus musculus [8]): 41%
- Activity (Mus musculus [9]): 49%
- Activity (Mus musculus [10]): 12%

- IC50 (RAW264.7 [14]): 5 µg/mL (≈ 17.8 µM)
SMILES: O=C(/C=C/CCc1ccc(O)cc1)CCc1ccccc1
- inhibition at 5 µg/mL (RAW264.7 [11]): 71%
- inhibition at 5 µg/mL (RAW264.7 [12]): 69%
- ID50 (Mus musculus [13]): 0.8 µmol
- inhibition at 5 µg/mL (RAW264.7 [15]): 69%
- inhibition at 5 µg/mL (RAW264.7 [16]): 70%
- inhibition at 5 µg/mL (RAW264.7 [17]): 50%

- IC50 (Zingiber officinale): 50 µM
- IC50 (RAW264.7 [28]): 0.6 µM
SMILES: COc1cc(CC/C=C/C(=O)CCc2ccccc2)ccc1O
- inhibition at 25 µM (RAW264.7 [18]): 50%
- inhibition at 10 µg/mL (HepG2 [19]): 52%
- inhibition at 25 µM [20]: 85%
- ID50 (Mus musculus [13]): 2.2 µmol
- inhibition at 25 µM (RAW264.7 [21]): 75.5%
- inhibition at 10 µg/mL (HepG2 [22]): 85%
- inhibition at 10 µg/mL (HepG2 [23]): 86%
- Activity (RAW264.7 [24]): > 80%
- inhibition at 25 µM (RAW264.7 [25]): 54.6%
- inhibition at 25 µM [26]: 43%
- inhibition at 20 µg/mL (RAW264.7 [27]): 54%

SMILES: COc1cc2ccc1Oc1cc(ccc1O)CC[C@H](O[C@@H]1O[C@H](CO)[C@@H](O)[C@H](O)[C@H]1O)CC(=O)CC2
- inhibition (INH) (RAW264.7 [29]): 29.2%
- inhibition (INH) (RAW264.7 [30]): 32.7%
- inhibition (INH) (RAW264.7 [31]): 44.1%

SMILES: COc1cc(CC/C=C/C(=O)CCc2ccc(O)c(OC)c2)ccc1O
- Activity (HUVEC [32]): 17%
- Activity (HUVEC [33]): 26%
- Activity (HUVEC [34]): 7%
- Activity (HUVEC [35]): 8%
